Results: PubChem BioAssay (NCI)
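Values below derive from 48-hour exposures of cells grown in 96-well plates, with endpoints linearly interpolated between the two concentrations bracketing the appropriate inhibition level. Abbreviation: GI50, concentration required for 50% inhibition of growth. TGI: total growth inhibition.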

Experiments:
Test in all cases: NCI anticancer screen, dose series, 48 h
NCI-H226 lung = system: NCI-H226 lung
SF-268 CNS = system: SF-268 CNS
T-47D breast = system: T-47D breast
NCI/ADR-RES ovarian = system: NCI/ADR-RES ovarian
LOX IMVI melanoma = system: LOX IMVI melanoma
DU-145 prostate = system: DU-145 prostate
HS 578T breast = system: HS 578T breast
TK-10 renal = system: TK-10 renal
HOP-62 NSCLC = system: HOP-62 NSCLC
RPMI-8226 leukemia = system: RPMI-8226 leukemia
MALME-3M melanoma = system: MALME-3M melanoma
SW-620 colon = system: SW-620 colon
UO-31 renal = system: UO-31 renal
OVCAR-3 ovarian = system: OVCAR-3 ovarian
RXF 393 renal = system: RXF 393 renal
PC-3 prostate = system: PC-3 prostate
IGROV1 ovarian = system: IGROV1 ovarian
SNB-75 CNS = system: SNB-75 CNS
NCI-H522 lung = system: NCI-H522 lung
SF-539 CNS = system: SF-539 CNS
MDA-MB-435 = system: MDA-MB-435
M14 melanoma = system: M14 melanoma
HCT-116 colon = system: HCT-116 colon
SF-295 CNS = system: SF-295 CNS
HOP-92 NSCLC = system: HOP-92 NSCLC
NCI-H23 lung = system: NCI-H23 lung
CCRF-CEM leukemia = system: CCRF-CEM leukemia
CAKI-1 renal = system: CAKI-1 renal

Clc1nc(Cl)c2ncn(CC3(Cn4cnc5c(Cl)nc(Cl)nc54)COC3)c2n1
GI50 (NCI-H226 lung): 1770 nM
TGI (NCI-H226 lung): 3680 nM
GI50 (SF-268 CNS): 196 nM
TGI (SF-268 CNS): 372 nM
GI50 (T-47D breast): 179 nM
TGI (T-47D breast): 391 nM
GI50 (NCI/ADR-RES ovarian): 257 nM
TGI (NCI/ADR-RES ovarian): 573 nM
GI50 (LOX IMVI melanoma): 180 nM
TGI (LOX IMVI melanoma): 349 nM
GI50 (DU-145 prostate): 183 nM
TGI (DU-145 prostate): 335 nM
GI50 (HS 578T breast): 316 nM
TGI (HS 578T breast): 868 nM
GI50 (TK-10 renal): 601 nM
TGI (TK-10 renal): 1200 nM
GI50 (HOP-62 NSCLC): 221 nM
TGI (HOP-62 NSCLC): 426 nM
GI50 (RPMI-8226 leukemia): 1860 nM
TGI (RPMI-8226 leukemia): 59100 nM
GI50 (MALME-3M melanoma): 187 nM
TGI (MALME-3M melanoma): 433 nM
GI50 (SW-620 colon): 257 nM
TGI (SW-620 colon): 651 nM
GI50 (UO-31 renal): 623 nM
TGI (UO-31 renal): 1350 nM
GI50 (OVCAR-3 ovarian): 202 nM
TGI (OVCAR-3 ovarian): 360 nM
GI50 (RXF 393 renal): 196 nM
TGI (RXF 393 renal): 405 nM
GI50 (PC-3 prostate): 188 nM
TGI (PC-3 prostate): 348 nM
GI50 (IGROV1 ovarian): 209 nM
TGI (IGROV1 ovarian): 405 nM
GI50 (SNB-75 CNS): 201 nM
TGI (SNB-75 CNS): 395 nM
GI50 (NCI-H522 lung): 966 nM
TGI (NCI-H522 lung): 3070 nM
GI50 (SF-539 CNS): 1240 nM
TGI (SF-539 CNS): 2550 nM
GI50 (MDA-MB-435): 234 nM
TGI (MDA-MB-435): 613 nM
GI50 (M14 melanoma): 274 nM
TGI (M14 melanoma): 753 nM
GI50 (HCT-116 colon): 182 nM
TGI (HCT-116 colon): 350 nM
GI50 (SF-295 CNS): 1560 nM
TGI (SF-295 CNS): 3100 nM
GI50 (HOP-92 NSCLC): 330 nM
TGI (HOP-92 NSCLC): 876 nM
GI50 (NCI-H23 lung): 194 nM
TGI (NCI-H23 lung): 392 nM
GI50 (CCRF-CEM leukemia): 221 nM
TGI (CCRF-CEM leukemia): 471 nM
GI50 (CAKI-1 renal): 195 nM
TGI (CAKI-1 renal): 496 nM
